Measured values taken from US9056874B2, “Complement pathway modulators and uses thereof” (NOVARTIS AG, priority 2012, dated 2015).

The molecules below were run against factor B (Homo sapiens, UniProt P00751) (assay: assay of Biological Example 2.7). Details: assay of Biological Example 2.7 (Table 2).
Type: binding
Set-up: made in house; host or cells: drosophila cells

factor B, sequence (P00751 26-764): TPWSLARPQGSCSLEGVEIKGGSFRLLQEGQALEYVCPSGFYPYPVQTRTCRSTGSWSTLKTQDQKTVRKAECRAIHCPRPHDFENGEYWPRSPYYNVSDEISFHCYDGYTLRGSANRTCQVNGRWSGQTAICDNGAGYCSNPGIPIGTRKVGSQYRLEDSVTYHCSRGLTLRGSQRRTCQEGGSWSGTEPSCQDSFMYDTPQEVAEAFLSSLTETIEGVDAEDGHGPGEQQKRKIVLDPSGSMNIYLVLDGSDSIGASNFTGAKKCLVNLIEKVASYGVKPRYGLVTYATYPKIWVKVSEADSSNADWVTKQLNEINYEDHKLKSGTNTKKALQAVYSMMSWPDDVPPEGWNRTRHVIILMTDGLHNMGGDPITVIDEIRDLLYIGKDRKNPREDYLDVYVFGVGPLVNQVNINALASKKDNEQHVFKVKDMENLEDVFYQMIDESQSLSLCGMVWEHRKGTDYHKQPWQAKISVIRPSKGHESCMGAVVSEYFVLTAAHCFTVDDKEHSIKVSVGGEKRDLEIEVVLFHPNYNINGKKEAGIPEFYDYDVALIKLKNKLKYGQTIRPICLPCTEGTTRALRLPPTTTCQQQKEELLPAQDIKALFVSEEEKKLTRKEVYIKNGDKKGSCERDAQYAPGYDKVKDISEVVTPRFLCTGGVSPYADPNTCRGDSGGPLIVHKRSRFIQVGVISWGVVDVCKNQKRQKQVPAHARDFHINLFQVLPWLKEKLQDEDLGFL

Row | SMILES | IC50
1 | Cc1cc(Br)c(C(C)(N)c2nc3cc(C#N)ccc3[nH]2)c2cc[nH]c12 (single isomer, unassigned; (+)) [137-A b) (+), (+)-2-(1-amino-1-(5-bromo-7-methyl-1H-indol-4-yl)ethyl)-1H-benzo[d]imidazole-5-carbonitrile] | 0.12 µM
2 | Cc1cc(C)c2[nH]ccc2c1C(O)c1cc2cc(C#N)ccc2o1 (stereo not drawn) [Example 137-Q] | 1.35 µM
3 | COc1cc(C)c2[nH]ccc2c1C(N)c1nc2cc(C#N)ccc2s1 (stereo not drawn) [Example 137-E] | 0.27 µM
4 | COC(C)(c1nc2cc(C#N)ccc2o1)c1c(C2CC2)cc(C)c2[nH]ccc12 (single isomer, unassigned; (-)) [137-L b) (−), (−)-2-(1-(5-cyclopropyl-7-methyl-1H-indol-4-yl)-1-methoxyethyl)benzo[d]oxazole-5-carbonitrile] | 0.27 µM
5 | COc1cc(C)c2[nH]ccc2c1C(C)(O)c1nc2cc(C#N)ccc2o1 (single isomer, unassigned; (+)) [137-N b) (+), (+)-2-(1-hydroxy-1-(5-methoxy-7-methyl-1H-indol-4-yl)ethyl)benzo[d]oxazole-5-carbonitrile] | 0.04 µM
6 | Cc1cc(C)c2[nH]ccc2c1C(O)c1nc2ccc(C#N)cc2s1 (stereo not drawn) [Example 137-O] | 3.16 µM
7 | COc1cc(C)c2[nH]ccc2c1C(c1nc2cc(C#N)ccc2[nH]1)C(C)C(=O)O (single isomer, unassigned; diastereomer b) [Example 147-E, (±)-3-(5-Cyano-1H-benzo[d]imidazol-2-yl)-3-(5-methoxy-7-methyl-1H-indol-4-yl)-2-methylpropanoic acid (Diastereomer B)] | 0.16 µM
8 | COc1cc(C)c2[nH]ccc2c1C(NCCN)(c1nc2cc(C#N)ccc2[nH]1)C(F)(F)F (racemic) [38-D b) (+), (+)-2-(1-((2-aminoethyl)amino)-2,2,2-trifluoro-1-(5-methoxy-7-methyl-1H-indol-4-yl)ethyl)-1H-benzo[d]imidazole-5-carbonitrile] | 2.06 µM
9 | COc1cc(C)c2[nH]ccc2c1C(CC(=O)O)c1nc2cc(C#N)ccc2o1 (single isomer, unassigned; (+)) [Example 148-D, (+)-3-(5-cyanobenzo[d]oxazol-2-yl)-3-(5-methoxy-7-methyl-1H-indol-4-yl)propanoic acid] | 0.34 µM
10 | COc1cc(C)c2[nH]ccc2c1C1(c2nc3cc(C#N)ccc3o2)CC1C(=O)O (racemic) [Example 143, (±)-2-(5-Cyanobenzo[d]oxazol-2-yl)-2-(5-methoxy-7-methyl-1H-indol-4-yl)cyclopropanecarboxylic acid] | 7.2 µM
11 | Cc1cc(O)c(C(N)(c2nc3cc(C#N)ccc3[nH]2)C(F)(F)F)c2cc[nH]c12 (single isomer, unassigned) [Example 141, (+) or (−)-2-(1-amino-2,2,2-trifluoro-1-(5-hydroxy-7-methyl-1H-indol-4-yl)ethyl)-1H-benzo[d]imidazole-5-carbonitrile] | 0.15 µM
12 | CCc1cc(C)c2[nH]ccc2c1C(C)(N)c1nc2cc(C#N)ccc2o1 (single isomer, unassigned) [137-F b) (tr = 3.3 min), (+) or (−)-2-(1-amino-1-(5-ethyl-7-methyl-1H-indol-4-yl)ethyl)benzo[d]oxazole-5-carbonitrile] | 0.17 µM
13 | COc1cc(C)c2[nH]ccc2c1C(N)(c1nc2cc(C#N)ccc2o1)C(F)(F)F (single isomer, unassigned) [137-B b) (tr = 2.7 min), (+) or (−)-2-(1-amino-2,2,2-trifluoro-1-(5-methoxy-7-methyl-1H-indol-4-yl)ethyl)benzo[d]oxazole-5-carbonitrile] | 0.02 µM
14 | CCOC(=O)C(C)(c1nc2cc(C#N)ccc2o1)c1c(OC)cc(C)c2[nH]ccc12 (racemic) [Example 144-D, (±)-Ethyl 2-(5-cyanobenzo[d]oxazol-2-yl)-2-(5-methoxy-7-methyl-1H-indol-4-yl)propanoate] | 7.95 µM
15 | COc1cc(C)c2[nH]ccc2c1C(CCC(=O)O)c1nc2cc(C#N)ccc2[nH]1 (racemic) [Example 146-C, (±)-4-(5-Cyano-1H-benzo[d]imidazol-2-yl)-4-(5-methoxy-7-methyl-1H-indol-4-yl)butanoic acid] | 0.059 µM
16 | COc1cc(C)c2[nH]ccc2c1C(Cc1nn[nH]n1)c1nc2cc(C#N)ccc2[nH]1 (racemic) [Example 152, (±)-2-(1-(5-Methoxy-7-methyl-1H-indol-4-yl)-2-(2H-tetrazol-5-yl)ethyl)-1H-benzo[d]imidazole-5-carbonitrile] | 0.067 µM
17 | CNC(C)(c1nc2cc(C#N)ccc2o1)c1c(OC)cc(C)c2[nH]ccc12 (single isomer, unassigned) [137-M b) (tr = 2.9 min), (+) or (−)-2-(1-(5-methoxy-7-methyl-1H-indol-4-yl)-1-(methylamino)ethyl)benzo[d]oxazole-5-carbonitrile] | 0.37 µM
18 | COc1cc(C)c2[nH]ccc2c1C(OCc1nnc(C)o1)(c1nc2cc(C#N)ccc2[nH]1)C(F)(F)F (racemic) [Example 35-L, (±)-2-(2,2,2-Trifluoro-1-(5-methoxy-7-methyl-1H-indol-4-yl)-1-((5-methyl-1,3,4-oxadiazol-2-yl)methoxy)ethyl)-1H-benzo[d]imidazole-5-carbonitrile] | 0.24 µM
19 | [2H]C([2H])([2H])OC(c1nc2cc(C#N)ccc2[nH]1)(c1c(OC)cc(C)c2[nH]ccc12)C(F)(F)F (single isomer, unassigned; (-)) [137-J b) (−), (−)-2-(2,2,2-trifluoro-1-(^2H3)-methoxy-1-(5-methoxy-7-methyl-1H-indol-4-yl)ethyl)-1H-benzo[d]imidazole-5-carbonitrile] | 0.01 µM
20 | CCOC(=O)COC(c1nc2cc(C#N)ccc2[nH]1)(c1c(OC)cc(C)c2[nH]ccc12)C(F)(F)F (single isomer, unassigned) [Example 35-D, (+) or (−)-Ethyl 2-(1-(5-cyano-1H-benzo[d]imidazol-2-yl)-2,2,2-trifluoro-1-(5-methoxy-7-methyl-1H-indol-4-yl)ethoxy)acetate] | 0.024 µM
21 | COc1cc(C)c2[nH]ccc2c1C(N)(c1nc2cc(C#N)ccc2o1)C(F)(F)F (single isomer, unassigned) [137-B b) (tr = 4.6 min), (−) or (+)-2-(1-amino-2,2,2-trifluoro-1-(5-methoxy-7-methyl-1H-indol-4-yl)ethyl)benzo[d]oxazole-5-carbonitrile] | 3.21 µM
22 | COc1cc(C)c2[nH]ccc2c1C(C)(O)c1cc2cc(C#N)ccc2[nH]1 (stereo not drawn) [Example 137-U] | 0.035 µM
23 | COc1c(F)c(C)c2[nH]ccc2c1C(C)(OC)c1nc2cc(C#N)ccc2[nH]1 (stereo not drawn) [Example 137-H] | 0.031 µM
24 | COc1cc(C)c2[nH]ccc2c1C(C)(O)c1cc2cc(C#N)ccc2o1 (stereo not drawn) [Example 137-V] | 0.023 µM
25 | COc1cc(C)c2[nH]ccc2c1C(C)(N)c1nc2cc(C#N)ccc2s1 (stereo not drawn) [Example 137-D] | 0.17 µM
26 | COc1cc(C)c2[nH]ccc2c1C(CCC(=O)O)c1nc2cc(C#N)ccc2o1 (single isomer, unassigned; (-)) [Example 149-D, (−)-4-(5-cyanobenzo[d]oxazol-2-yl)-4-(5-methoxy-7-methyl-1H-indol-4-yl)butanoic acid] | 0.12 µM
27 | COc1cc(C)c2[nH]ccc2c1C(C)(O)c1nc2ccc(C#N)cc2s1 (stereo not drawn) [Example 137-S] | 0.11 µM
